Where “and” joins values, the source holds several entries; their conditions need not be identical. Equal entries are not always repeated.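 Protocol summary: plate cells (96-well), add compound at 5 concentrations, incubate 48 h, interpolate endpoints linearly. Abbreviation: GI50, concentration required for 50% inhibition of growth. Definition used: TGI = concentration required for complete inhibition of growth.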

Test systems include 786-0 renal; LXFL 529 NSCLC; RXF 393 renal; SF-539 CNS; SK-MEL-5 melanoma; HL-60(TB) leukemia; K-562 leukemia; M19-MEL melanoma; SK-MEL-28 melanoma; TK-10 renal.
Common to all, as to assay: NCI anticancer screen, dose series, 48 h

Turning to `COC1=C2C[C@@H](C)C[C@@H](OC)[C@@H](O)[C@H](C)/C=C(\C)[C@@H](OC(N)=O)[C@H](OC)/C=C\C=C(/C)C(=O)NC(=CC1=O)C2=O`, the TGI is 8.21 µM and 6.04 µM and 13.7 µM in the assay with 786-0 renal; 14.1 µM with LXFL 529 NSCLC; 9.47 µM and 12.2 µM and 2.68 µM in the assay on SF-539 CNS; 8.59 µM [middle of 4 runs] in the assay on SK-MEL-5 melanoma. Besides, the GI50 in the assay with RXF 393 renal is 0.0245 µM.

Regarding `COc1ccc(C(=O)C(C(=O)C(=O)NC2C3CC4CC(C3)CC2C4)c2ccc(OC)cc2)cc1` (centres undefined), the TGI in the assay on 786-0 renal, in the assay with HL-60(TB) leukemia, with K-562 leukemia, in the assay with LXFL 529 NSCLC, in the assay with M19-MEL melanoma and in the assay on SF-539 CNS was over 100 µM in each case. Further, the TGI in the assay on SK-MEL-28 melanoma, in the assay on SK-MEL-5 melanoma and in the assay with TK-10 renal was over 100 µM each time.

In the case of `CCC1CC(C)=CCN1S(=O)(=O)c1ccc(C)cc1` (centres undefined), the TGI is over 100 µM in the assay with 786-0 renal; 18 µM in the assay on HL-60(TB) leukemia; over 100 µM in the assay on K-562 leukemia; over 100 µM in the assay on LXFL 529 NSCLC; 39.8 µM with SF-539 CNS; 26.8 µM in the assay with SK-MEL-5 melanoma.

Regarding `NC(=O)Nc1c([N+](=O)[O-])cc(C(F)(F)F)cc1[N+](=O)[O-]`, the TGI in the assay with 786-0 renal, in the assay with HL-60(TB) leukemia, with K-562 leukemia, with LXFL 529 NSCLC, with RXF 393 renal and in the assay on SF-539 CNS was over 100 µM in each case. For the same compound, the TGI with SK-MEL-28 melanoma, in the assay on SK-MEL-5 melanoma and in the assay with TK-10 renal was over 100 µM throughout.

`CCOC(=O)C(=O)Nc1c(C)cccc1C(C)C`: the TGI with 786-0 renal, in the assay with HL-60(TB) leukemia, with K-562 leukemia, in the assay with LXFL 529 NSCLC, with M19-MEL melanoma and in the assay with SF-539 CNS was over 100 µM throughout. Besides, the TGI with SK-MEL-28 melanoma, in the assay on SK-MEL-5 melanoma and in the assay with TK-10 renal was over 100 µM in each case.

Turning to `CC1=NC(C(C)C)C(=O)O1` (centres undefined), the TGI in the assay with 786-0 renal, with HL-60(TB) leukemia, in the assay on K-562 leukemia, in the assay on LXFL 529 NSCLC, with M19-MEL melanoma and in the assay on SF-539 CNS was over 100 µM in each case. Also, the TGI in the assay on SK-MEL-28 melanoma, in the assay with SK-MEL-5 melanoma and in the assay with TK-10 renal was over 100 µM each time.

For the compound `O=C1OC(c2ccccc2)=N/C1=C\c1cc(Cl)ccc1Cl`, the TGI is over 100 µM with 786-0 renal; 35.3 µM with HL-60(TB) leukemia; over 100 µM in the assay with K-562 leukemia; 86 µM in the assay with LXFL 529 NSCLC; over 100 µM in the assay on M19-MEL melanoma; over 100 µM in the assay on RXF 393 renal. The TGI in the assay on SF-539 CNS, in the assay with SK-MEL-28 melanoma and with SK-MEL-5 melanoma was over 100 µM in each case.

Consider `CCOC(=O)NC(=O)c1cn(CCCOC(=O)NCCCCCCNC(=O)OCCCn2cc(C(=O)NC(=O)OCC)c(=O)[nH]c2=O)c(=O)[nH]c1=O`, for which the TGI in the assay on 786-0 renal is 49.9 µM; in the assay on HL-60(TB) leukemia it was 41.7 µM; in the assay with K-562 leukemia, 39.8 µM; in the assay on LXFL 529 NSCLC, over 100 µM; with M19-MEL melanoma, over 100 µM; with SF-539 CNS it was 44.5 µM. The TGI was 88.9 µM in the assay with SK-MEL-28 melanoma, over 100 µM in the assay with SK-MEL-5 melanoma and 68.5 µM in the assay with TK-10 renal.

Turning to `Cc1ccc(C(=O)C#Cc2c[nH]c(=O)[nH]c2=O)cc1`, the TGI with 786-0 renal turned out to be 26.2 µM; in the assay with HL-60(TB) leukemia, 35.1 µM; in the assay on K-562 leukemia it was 34.2 µM; in the assay on M19-MEL melanoma, 36.5 µM; with RXF 393 renal it was 12.4 µM; in the assay with SF-539 CNS it was 15.5 µM. The TGI in the assay with SK-MEL-28 melanoma was determined as 30.8 µM; in the assay on SK-MEL-5 melanoma, 26.5 µM; in the assay with TK-10 renal, 31.9 µM.

As to `C=CC[C@@H]1/C=C(\C)C[C@H](C)C[C@H](OC)[C@H]2O[C@@](O)(C(=O)C(=O)N3CCCC[C@H]3C(=O)O[C@H](/C(C)=C/C3CC[C@@H](O)[C@H](OC)C3)[C@H](C)[C@@H](O)CC1=O)[C@H](C)C[C@@H]2OC` (some centres undefined), the GI50 with 786-0 renal is 17.3 µM; with HL-60(TB) leukemia, 16.4 µM; in the assay with K-562 leukemia, 18.7 µM; in the assay on RXF 393 renal, 13.6 µM; in the assay on SF-539 CNS, 17.5 µM; in the assay with SK-MEL-28 melanoma it was 15.2 µM. Moreover, the figures for the GI50 with SK-MEL-5 melanoma and in the assay on TK-10 renal were 13.7 µM and 14.3 µM, respectively. The TGI in the assay on 786-0 renal was 35.1 µM; with HL-60(TB) leukemia, 38.4 µM; in the assay with K-562 leukemia, 52 µM; in the assay on RXF 393 renal it was 27.3 µM; with SF-539 CNS it was 34 µM; in the assay with SK-MEL-28 melanoma it was 29.2 µM. Besides, the TGI came out at 26.6 µM in the assay with SK-MEL-5 melanoma and 27.8 µM with TK-10 renal.

`CCOC(=O)N[C@@H]1C2CC(=O)C(O2)[C@@H]1OC` (some centres undefined): the TGI in the assay with 786-0 renal, in the assay with HL-60(TB) leukemia, in the assay with K-562 leukemia, in the assay on M19-MEL melanoma, with RXF 393 renal and in the assay with SF-539 CNS was over 100 µM each time. For the same compound, the TGI with SK-MEL-28 melanoma, with SK-MEL-5 melanoma and in the assay on TK-10 renal was over 100 µM in each case.

Turning to `O=C(NC1CCCCC1)NS(=O)(=O)c1ccc(-n2nc3c(c2-c2ccc(Cl)cc2)Cc2ccccc2-3)cc1`, the GI50 in the assay on 786-0 renal was 5.07 µM; in the assay with HL-60(TB) leukemia it was 4.28 µM; with K-562 leukemia it was 2.15 µM; with RXF 393 renal, 20 µM; in the assay with SF-539 CNS it was 11.2 µM; in the assay on SK-MEL-28 melanoma it was 21.9 µM. Besides, the GI50 is 12.1 µM in the assay with SK-MEL-5 melanoma and 13.3 µM in the assay with TK-10 renal. Moreover, the TGI in the assay with 786-0 renal was over 100 µM; with HL-60(TB) leukemia, 14.6 µM; in the assay with K-562 leukemia, 5.89 µM; in the assay with RXF 393 renal, 75.2 µM; in the assay with SF-539 CNS it was 27.7 µM; with SK-MEL-28 melanoma it was 50.5 µM. In addition, the TGI with SK-MEL-5 melanoma worked out at 40.2 µM; with TK-10 renal, 26.9 µM.

As for `O=C1CC[C@H](c2ccc(O)c3c2C(=O)[C@@H]2O[C@@H]2C3=O)c2cccc(O)c21`, the GI50 in the assay on 786-0 renal was 1.79 µM; in the assay on HL-60(TB) leukemia, 1.93 µM; in the assay with K-562 leukemia, 2.36 µM; in the assay on RXF 393 renal, 1.73 µM; in the assay on SF-539 CNS, 2.42 µM; with SK-MEL-28 melanoma, 1.83 µM. The GI50 with SK-MEL-5 melanoma is 3.54 µM; with TK-10 renal, 1.49 µM. The TGI came out at 3.43 µM in the assay with 786-0 renal; 5.87 µM with HL-60(TB) leukemia; 10.4 µM with K-562 leukemia; 3.27 µM in the assay on RXF 393 renal; 5.46 µM in the assay with SF-539 CNS; 3.62 µM in the assay with SK-MEL-28 melanoma. In addition, the TGI was 12.1 µM in the assay on SK-MEL-5 melanoma and 2.93 µM in the assay with TK-10 renal.

In the case of `Cc1sc(NC2=NC(=O)/C(=C\c3ccccc3)S2)nc1-c1nc(NC2=NC(=O)/C(=C\c3ccccc3)S2)sc1C`, the GI50 is 11.4 µM with 786-0 renal; 18 µM in the assay with HL-60(TB) leukemia; 13.2 µM in the assay on K-562 leukemia; over 24.2 µM in the assay with RXF 393 renal; 17.9 µM in the assay on SF-539 CNS; 25.3 µM in the assay with SK-MEL-28 melanoma. The GI50 in the assay on SK-MEL-5 melanoma is 13.1 µM; in the assay with TK-10 renal it was 7.19 µM. For the same compound, the TGI in the assay with 786-0 renal was 33.4 µM; with HL-60(TB) leukemia, over 50 µM; in the assay with K-562 leukemia it was over 35 µM; in the assay with RXF 393 renal, over 40.2 µM; in the assay on SF-539 CNS it was over 34.1 µM; in the assay with SK-MEL-28 melanoma, over 50 µM. Further, the TGI in the assay on SK-MEL-5 melanoma is over 34.5 µM; in the assay on TK-10 renal, 22.7 µM.

Take `Nc1ccc(-c2nc3ccccc3o2)cc1S`: the GI50 with 786-0 renal was 14.5 µM; with HL-60(TB) leukemia, 14.5 µM; with K-562 leukemia it was 19 µM; with RXF 393 renal it was 29.4 µM; with SF-539 CNS, 17.6 µM; with SK-MEL-28 melanoma, 24.9 µM. The GI50 was 12.5 µM with SK-MEL-5 melanoma and 11.6 µM in the assay on TK-10 renal. In addition, the TGI in the assay with 786-0 renal was 27.6 µM; in the assay with HL-60(TB) leukemia, 42 µM; in the assay on K-562 leukemia, over 100 µM; in the assay on RXF 393 renal, 59.6 µM; in the assay on SF-539 CNS, 31.4 µM; in the assay on SK-MEL-28 melanoma, 58.8 µM. The TGI in the assay on SK-MEL-5 melanoma was found to be 25.1 µM; in the assay with TK-10 renal it was 29 µM.

`CC(=O)c1ccc(NC(=O)C(=O)C(C(=O)c2ccc(Cl)c(Cl)c2)C2OC(=O)c3ccccc32)cc1` (centres undefined): the TGI in the assay on 786-0 renal was 33.8 µM; with HL-60(TB) leukemia, over 100 µM; in the assay with K-562 leukemia, over 100 µM; in the assay on LXFL 529 NSCLC, 32.8 µM; in the assay on RXF 393 renal, 17.4 µM; in the assay with TK-10 renal, over 100 µM.

Regarding `COc1cc(Nc2nc3cc(C(F)(F)F)ccc3nc2-c2ccccc2)cc(OC)c1OC`, the TGI with 786-0 renal is over 100 µM; in the assay with HL-60(TB) leukemia it was over 100 µM; with K-562 leukemia, over 100 µM; in the assay on LXFL 529 NSCLC, over 100 µM; in the assay on RXF 393 renal it was 63.8 µM; with SF-539 CNS, over 100 µM. Moreover, the figures for the TGI in the assay with SK-MEL-28 melanoma, with SK-MEL-5 melanoma and in the assay with TK-10 renal were over 100 µM, over 100 µM and 77 µM, respectively.

On to `Cn1ccnc1C(=O)/C=C/c1ccc(CC(=O)Nc2ccc(F)cc2)cc1`, for which the GI50 is 1.37 µM with 786-0 renal; 1.6 µM in the assay on HL-60(TB) leukemia; 0.823 µM in the assay with K-562 leukemia; 3.89 µM in the assay with RXF 393 renal; 3.59 µM in the assay with SF-539 CNS; 4.47 µM in the assay with SK-MEL-28 melanoma. Besides, the values for the GI50 in the assay on SK-MEL-5 melanoma and in the assay on TK-10 renal were 4.45 µM and 10.5 µM, respectively. The TGI was 7.09 µM in the assay on 786-0 renal; 12.4 µM in the assay on HL-60(TB) leukemia; over 25 µM in the assay with K-562 leukemia; 7.97 µM in the assay with RXF 393 renal; 7.12 µM in the assay with SF-539 CNS; 9.95 µM in the assay with SK-MEL-28 melanoma. In addition, the TGI was 8.09 µM in the assay with SK-MEL-5 melanoma and over 25 µM in the assay with TK-10 renal.

(Values after PubChem BioAssay (NCI).)
